In PMC7815786, “Antimicrobial effects of syndiotactic polypeptides” (Scientific Reports, 2021):
≈ marks a conversion by molar mass, not a printed value. Where a SMILES comes first, the peptide text is derived from it. [ ]: non-standard residue; d: D form.

Columns and labels:
[1] = tested on: Mycobacterium smegmatis (ATCC607); type: cell-based; settings: ATCC607, 72 h
Method: (§1) The antibacterial activity was performed using micro-dilution method as per Clinical and Laboratory Standards Institute (CLSI). Gentamicin resistant MRSA (ATCC 33592), Mycobacterium smegmatis (ATCC607) were procured from ATCC, Escherichia coli MG1655 has been sourced fromChaudhary laboratory, BSBE, IIT Guwahati. The clinical isolates was provided by Dr. Chimanjita Phukan (Guwahati Medical College Hospital, Bhangagarh, Guwahati, Assam). The media broth was procured from Himedia Laboratories. Overnight culture of Gentamicin resistant MRSA (ATCC 33592), Escherichia coli MG1655, clinical isolates [(S. aureus (drug resistant) and E. coli (multidrug resistant) supplementary table 2] were diluted to 10^6 CFU/mL in Nutrient Broth (NB). 100 µL of broth containing 50 µL of bacterial suspension and test peptides at various concentrations were incubated for 12 to 16 h at 37 °C[33]. Similarly, Mycobacterium smegmatis (ATCC607) was diluted to 10^6 CFU/mL in M7H9 media. 50 µL of bacterial suspension was treated with 50 µL peptides at various concentrations. The peptide bacterial suspension was incubated for 72 h at 37 °C. The antimicrobial potencies of the peptides were evaluated at 600 nm by a comparative assessment with untreated bacterial suspension (negative control). The Minimal Inhibitory Concentration (MIC) was reported at the lowest concentration, where no growth was observed, as per standard protocols. The serum sensitivity experiment was similar to antibacterial activity. In this experiment, 50% serum containing media was used, instead of media alone. The experiment with human serum was performed as per IHEC (Institute Human Ethics Committee) guidelines, at IIT Guwahati hospital, from healthy adult donors. All the protocols were approved by the IHEC, and performed, with the informed consent and written approval from the subjects.

[2] = tested on: Escherichia coli MG1655; type: cell-based
Method: as §1

[3] = tested on: Gentamicin resistant MRSA (ATCC 33592); type: cell-based, Staphylococcus aureus
Method: as §1

[4] = tested on: clinical isolate of drug resistant Staphylococcus aureus (sample 28401); type: cell-based; settings: clinical isolate of drug resistant (sample 28401)
Method: as §1
(§2) Primary screening of the antibacterial activity of the peptides was performed against clinical isolates obtained from a tertiary referral hospital (Details in supplementary information, section 3). Resistant Staphylococcus aureus (Gram-positive) and E.coli (Gram negative) are the two clinical bacterial strains assayed in this study. The results of the antimicrobial assay are summarized in Fig. 4 and supplementary Table 2.
(§3) Supplementary Table 2. The in-vitro antimicrobial activity of designed peptides against clinical isolates of multi-drug resistant Staphylococcus aureus and Escherichia coli. The concentration is expressed in µM.

[5] = tested on: clinical isolate of multi-drug resistant Escherichia coli (sample 28162); type: cell-based; settings: clinical isolate of multi-drug resistant (sample 28162)
Method: as §1, §2, §3

[6] = tested on: bacterial species tested (not specified); type: cell-based; settings: wet lab experiments, bacterial species not given
Method: as §1
Several modes of action of AMP’s have been proposed, and the contentious issue primarily is whether the peptide is targeting the membrane, followed by its disruption or it penetrates the membrane invading cytoplasm, affecting cellular metabolism. […]

| Compound | MIC M.smegmatis, Medium [1] [µM] | MIC E. coli, Medium [2] [µM] | MIC Gentamicin resistant MRSA, Medium [3] [µM] | MIC S. aureus clinical isolate [4] [µM] | MIC E.coli clinical isolate [5] [µM] | MIC values (summary in discussion) [6] [µM] |
| --- | --- | --- | --- | --- | --- | --- |
| CC(C)C[C@H](NC(=O)[C@@H](Cc1c[nH]c2ccccc12)NC(=O)[C@H](CC(C)C)NC(=O)[C@@H](Cc1c[nH]c2ccccc12)NC(=O)[C@H](CCCNC(=N)N)NC(=O)[C@@H](CCCCN)NC(=O)[C@@H](N)CCCNC(=N)N)C(=O)N[C@H](CCCCN)C(=O)N[C@@H](CCCNC(=N)N)C(=O)N[C@H](CCCCN)C(=O)N[C@@H](Cc1c[nH]c2ccccc12)C(=O)N[C@H](CC(C)C)C(=O)N[C@@H](Cc1c[nH]c2ccccc12)C(N)=O [AS02] (H-R[dK]R[dW]L[dW]L[dK]R[dK]W[dL]W-NH2) | 3.13 (≈ 6.12 µg/mL) | 6.25 (≈ 12.2 µg/mL) | 3.13 (≈ 6.12 µg/mL) | 50 (≈ 97.7 µg/mL) | 50 (≈ 97.7 µg/mL) | – |
| CC(C)C[C@@H](NC(=O)[C@H](Cc1c[nH]c2ccccc12)NC(=O)[C@@H](CC(C)C)NC(=O)[C@@H](N)Cc1c[nH]c2ccccc12)C(=O)N[C@@H](Cc1c[nH]c2ccccc12)C(=O)N[C@H](CC(C)C)C(=O)N[C@@H](Cc1c[nH]c2ccccc12)C(=O)N[C@@H](C(=O)N[C@@H](CCCCN)C(=O)N[C@H](CCCCN)C(=O)N[C@@H](C)C(=O)N[C@H](CCCCN)C(=O)N[C@@H](C)C(=O)N[C@H](CCCCN)C(=O)N[C@@H](CCCCN)C(N)=O)C(C)C [AS08] (H-W[dL]W[dL]W[dL]W[dV]K[dK]A[dK]A[dK]K-NH2) | 6.25 (≈ 12.4 µg/mL) | 6.25 (≈ 12.4 µg/mL) | 6.25 (≈ 12.4 µg/mL) | – | – | 1 to 10 |
| CC(C)[C@H](NC(=O)[C@H](NC(=O)[C@H](Cc1c[nH]c2ccccc12)NC(=O)[C@@H](Cc1c[nH]c2ccccc12)NC(=O)[C@H](CCCCN)NC(=O)[C@@H](CCCCN)NC(=O)[C@H](CCCCN)NC(=O)[C@H](NC(=O)[C@H](Cc1c[nH]c2ccccc12)NC(=O)[C@@H](Cc1c[nH]c2ccccc12)NC(=O)[C@H](CCCCN)NC(=O)[C@@H](CCCCN)NC(=O)[C@@H](N)CCCCN)C(C)C)C(C)C)C(N)=O [AS03] (H-K[dK]K[dW]W[dV]K[dK]K[dW]W[dV]V-NH2) | 6.25 (≈ 11.4 µg/mL) | 6.25 (≈ 11.4 µg/mL) | 3.13 (≈ 5.72 µg/mL) | 25 (≈ 45.7 µg/mL) | 25 (≈ 45.7 µg/mL) | 1 to 10 |
| CC(C)[C@H](NC(=O)[C@@H](Cc1c[nH]c2ccccc12)NC(=O)[C@H](Cc1c[nH]c2ccccc12)NC(=O)[C@@H](CCCCN)NC(=O)[C@H](CCCNC(=N)N)NC(=O)[C@@H](CCCCN)NC(=O)[C@@H](NC(=O)[C@H](NC(=O)[C@H](Cc1c[nH]c2ccccc12)NC(=O)[C@@H](Cc1c[nH]c2ccccc12)NC(=O)[C@H](CCCNC(=N)N)NC(=O)[C@@H](CCCCN)NC(=O)[C@@H](N)CCCNC(=N)N)C(C)C)C(C)C)C(N)=O [AS01] (H-R[dK]R[dW]W[dV]V[dK]R[dK]W[dW]V-NH2) | 6.25 (≈ 12 µg/mL) | 3.13 (≈ 5.99 µg/mL) | 6.25 (≈ 12 µg/mL) | – | – | – |
| CC(C)[C@@H](NC(=O)[C@H](Cc1c[nH]c2ccccc12)NC(=O)[C@H](NC(=O)[C@H](CCCCN)NC(=O)[C@@H](CCCCN)NC(=O)[C@H](CCCCN)NC(=O)[C@@H](Cc1c[nH]c2ccccc12)NC(=O)[C@@H](N)Cc1c[nH]c2ccccc12)C(C)C)C(=O)N[C@@H](CCCCN)C(=O)N[C@H](CCCCN)C(=O)N[C@@H](CCCCN)C(=O)N[C@H](Cc1c[nH]c2ccccc12)C(=O)N[C@@H](Cc1c[nH]c2ccccc12)C(N)=O [AS04] (H-W[dW]K[dK]K[dV]W[dV]K[dK]K[dW]W-NH2) | 6.25 (≈ 12 µg/mL) | 3.13 (≈ 6 µg/mL) | 1.6 (≈ 3.06 µg/mL) | 50 (≈ 95.8 µg/mL) | 25 (≈ 47.9 µg/mL) | – |
| CC(C)[C@H](NC(=O)[C@H](NC(=O)[C@H](CCCCN)NC(=O)[C@@H](CCCCN)NC(=O)[C@H](CCCCN)NC(=O)[C@H](NC(=O)[C@@H](NC(=O)[C@H](NC(=O)[C@H](CCCCN)NC(=O)[C@@H](CCCCN)NC(=O)[C@@H](N)CCCCN)C(C)C)C(C)C)C(C)C)C(C)C)C(=O)N[C@H](Cc1c[nH]c2ccccc12)C(=O)N[C@@H](CCCCN)C(N)=O [AS06] (H-K[dK]K[dV]V[dV]K[dK]K[dV]V[dW]K-NH2) | 25 (≈ 39.9 µg/mL) | 25 (≈ 39.9 µg/mL) | 50 (≈ 79.8 µg/mL) | – | – | ~50 (≈ 79.8 µg/mL) |
